Measurements from patent publication US11905251B1, “1-cyclopropyl-6-fluoro-7-(4-(2-hydroxy-3-(naphthalen-2-yloxy)propylpiperazin-1-yl)-4-oxo-1,4-dihydroquinoline-3-carboxylic acid as an eco-friendly insecticidal agent against Spodoptera littoralis (boisd.)” (priority 2023, dated 2024).
Values after ≈ are worked out from the molar mass of the structure shown.

Test system: Spodoptera littoralis (Boisd.) 2nd and 4th instar larvae
Assay: Insecticidal bioassay screening (castor leaf dip, larval mortality)
Type: in vivo
Details: for Toxic ratio: fenoxycarb's LC50 / compound's LC50 × 100
Protocol: Five concentrations (200, 100, 50, 25, 12.5 ppm) were designed for this synthetic compound and the reference fenoxycarb compound as the dynamic ingredients based on ppm via diluting the commercial formulation.
In this experiment, castor leaves are immersed in each of the previously prepared concentrations of the components for 10 seconds and then left to dry for 60 minutes. Larvae of the second and fourth instars of each checked strain are prepared with treated leaves in gauze-covered glass containers for 72 hrs. An untreated control is made in which leaves are dipped in triton x-100 and distilled water only. Then the preserved leaves were removed & fresh, untreated leaves were provided for 72 hours. Three replicates (10 larvae each) were checked for each concentration. Daily inspection was carried out for all treatments and mortality percentages were recorded 3 days (72 hours) after treatment. The average mortality percentage was corrected employing Abbott's formula. The corrected mortality rate for each of the previously synthesized compounds is statistically calculated according to Finney (1970). Through this rate, the corresponding concentration test lines (LDP lines) are assessed. Fifty and ninety percent mortality are determined, and the regression values for the checked products were previously evaluated.

[1] = Spodoptera littoralis, foliar, 72 h, 2nd instar larvae of S. littoralis, after 72 h of treatment
[2] = Spodoptera littoralis, foliar, 72 h, 4th instar larvae of S. littoralis, after 72 h of treatment
[3] = Spodoptera littoralis, foliar, against Spodoptera littoralis under laboratory conditions (instar not given)

Row | Compound | LC50 (in vivo) | Toxic ratio (2nd instar larvae, 72 h) | Toxic ratio (4th instar larvae, 72 h) | LC50 [1] | LC50 [2] | LC50 [3] | activity against Spodoptera littoralis (in words) (compared with reference insecticide fenoxycarb)
1 | O=C(O)c1cn(C2CC2)c2cc(N3CCN(CC(O)COc4ccc5ccccc5c4)CC3)c(F)cc2c1=O (stereo not shown) [listing 1 of 2 here] | about 103.01 ppm |  |  |  |  |  | 
2 | O=C(O)c1cn(C2CC2)c2cc(N3CCN(CC(O)COc4ccc5ccccc5c4)CC3)c(F)cc2c1=O (stereo not shown) [listing 2 of 2 here] | about 44.08 ppm |  |  |  |  |  | 
3 | O=C(O)c1cn(C2CC2)c2cc(N3CCN(CC(O)COc4ccc5ccccc5c4)CC3)c(F)cc2c1=O (stereo not shown) [Compound 7] |  | 6.1 | 41.9 | 44.1 µg/mL (≈ 82.9 µM) | 103 µg/mL (≈ 194 µM) | 44.1 µg/mL (≈ 82.9 µM) | active against Spodoptera littoralis
4 | CCOC(=O)NCCOc1ccc(Oc2ccccc2)cc1 [Fenoxycarb, reference compound] |  | 100 | 1 | 2.73 µg/mL (≈ 9.06 µM) | 43.2 µg/mL (≈ 143 µM) | 2.73 µg/mL (≈ 9.06 µM) | 
